Where a name gives a salt, the structure may show the parent alone. Read-outs that look alike come from different tables or passages of the source.
Experiments:
[1] = Hygroscopic behavior test by dynamic vapor sorption (DVS); assay type: physicochemical; conditions: 25° C.
Source text: The experimental method for characterizing an acid salt or a base salt of compound I by dynamic vapor sorption (DVS) was as follows: A small amount of a powder of a polymorph of compound I was taken and placed into a precise sample tray that matches the instrument. After the sample was loaded, the sample tray was sent into the instrument for analysis. In this patent, the instrument model used in the dynamic vapor sorption analysis was Intrinsic PLUS; the experimental parameter was set as follows: A constant temperature of 25° C. was set; the mass percent change rate per unit time (dm/dt)=0.02%/min was used as a criterion for determining that a balance is achieved; the program humidity change cycle was set as follows: The initial relative humidity was 0%, and the endpoint relative humidity was 90%.

[2] = Drug absorption experiment in SD rats, intragastric administration; assay type: in vivo; conditions: for absolute bioavailability: after dose correction, based on AUC0-t
Protocol: (§1) Blood samples were collected at different time points after administration and then separated to prepare plasma. The concentration of the drug in plasma was determined by liquid chromatography-tandem mass spectrometry, and pharmacokinetic parameters were calculated using a non-compartmental model.

[3] = Equilibrium solubility study in biological media; assay type: physicochemical; conditions: 37 °C, thermodynamic from solid, 37±2° C.
Protocol: In the tests, the solids were suspended in corresponding buffers to formulate suspensions (˜10 mg/mL), and the suspensions were mixed at 37±2° C. After 24 h, samples of the suspensions were taken. The supernatant was filtered, and the concentration was determined.

[4] = Solid state stability study (purity by HPLC and crystal form change); assay type: physicochemical; conditions: for Initial purity (%): before storage, HPLC
[5] = Drug absorption experiment in SD rats, intravenous administration; assay type: in vivo; conditions: rat, plasma, tail vein injection
Protocol: as §1, with “points before and” for “points”

[6] = Transformation of metastable crystal forms on drying or standing (XRPD); assay type: physicochemical
Protocol: After being stirred at room temperature for about 3 d, the mixture was filtered under vacuum. The resulting filter cake was metastable crystal form J of compound I. The product was analyzed and characterized by XRPD (FIG. 28).
The mixture was stirred at room temperature for 16 h and filtered. The resulting filter cake was metastable crystal form K of compound I. The product was analyzed and characterized by XRPD (FIG. 29).
The mixture was stirred at room temperature for about 3 d and filtered. The filter cake was dried at 50° C. for 16 h to give metastable crystal form L of compound I. The product was analyzed and characterized by XRPD (FIG. 30).
The mixture was stirred at 5° C. for about 1 d and filtered. The resulting filter cake was metastable crystal form M of compound I. The product was analyzed and characterized by XRPD (FIG. 31).
Crystal form C of compound I was heated to 80° C. at 10° C./min to give metastable crystal form N of compound I. The product was analyzed and characterized by XRPD (FIG. 32).

[7] = 25° C./60% RH, 7 days (long-term storage)
[8] = 40° C./75% RH, 7 days (accelerated)
[9] = 60° C., RH<30%, 7 days (high-temperature)

Which “Sample weight change at 80% RH (%)” value ([1]; DVS, 80% RH) does the source give for `O=C(O)c1ccc2nc(CN3CCC(Oc4cccc(COc5ccc(Cl)cc5F)n4)CC3)n(C[C@@H]3CCO3)c2c1` [Crystal form A of compound I, (S)-2-((4-((6-((4-chloro-2-fluorophenoxy)methyl)pyridin-2-yl)oxy)piperidin-1-yl)methyl)-1-(oxetan-2-ylmethyl)-1H-benzo[d]imidazole-6-carboxylic acid tromethamine salt (1:1)] here?
The value was 1.03%.

What about the “Whether the crystal form is changed” value ([1]; after DVS, 0-90% RH) of the same compound?
Its value is “No”.

What about the AUC(0-t) ([2]; 5 mg/kg) of the same compound?
The AUC(0-t) was 2.67 µg·h/mL.

And the Cmax ([2]; 5 mg/kg)?
Its Cmax is 0.847 µg/mL.

And the Tmax ([2]; 5 mg/kg)?
Its Tmax is 0.25 h.

And the t1/2 ([2]; 5 mg/kg)?
The t1/2 was 3.59 h.

What about the absolute bioavailability [2] of the same compound?
Its absolute bioavailability is 43.7%.

What about the solubility thermodynamic at 24 h ([3]; FaSSIF) of the same compound?
The solubility thermodynamic at 24 h was 0.11 mg/mL.

What about the solubility thermodynamic at 24 h ([3]; FeSSIF) of the same compound?
Its solubility thermodynamic at 24 h is 0.45 mg/mL.

And the solubility thermodynamic at 24 h ([3]; water, H2O)?
Its solubility thermodynamic at 24 h is 0.44 mg/mL.

What about the “Purity (%)” value [4, 7] of the same compound?
Its value is 99.18%.

And the “Purity (%)” value [4, 8]?
The value was 99.17%.

What about the “Purity (%)” value [4, 9] of the same compound?
The value was 98.83%.

What about the “Initial purity (%)” value [4] of the same compound?
Its value is 99.30%.

And the AUC(0-t) ([5]; 2 mg/kg)?
Its AUC(0-t) is 2.44 µg·h/mL.

And the Cmax ([5]; 2 mg/kg)?
The Cmax was 7.64 µg/mL.

And the half-life ([5]; 2 mg/kg)?
The half-life was 1.88 h.

Which “Purity (%)” value [4, 7] does the source give for `O=C(O)c1ccc2nc(CN3CCC(Oc4cccc(COc5ccc(Cl)cc5F)n4)CC3)n(C[C@@H]3CCO3)c2c1` [Crystal form B of compound I, (S)-2-((4-((6-((4-chloro-2-fluorophenoxy)methyl)pyridin-2-yl)oxy)piperidin-1-yl)methyl)-1-(oxetan-2-ylmethyl)-1H-benzo[d]imidazole-6-carboxylic acid tromethamine salt (1:1)] here?
The value was 98.74%.

What about the “Purity (%)” value [4, 8] of the same compound?
Its value is 98.73%.

And the “Purity (%)” value [4, 9]?
The value was 98.67%.

What about the “Initial purity (%)” value [4] of the same compound?
The value was 98.80%.

With `O=C(O)c1ccc2nc(CN3CCC(Oc4cccc(COc5ccc(Cl)cc5F)n4)CC3)n(C[C@@H]3CCO3)c2c1` [Crystal form I of compound I, (S)-2-((4-((6-((4-chloro-2-fluorophenoxy)methyl)pyridin-2-yl)oxy)piperidin-1-yl)methyl)-1-(oxetan-2-ylmethyl)-1H-benzo[d]imidazole-6-carboxylic acid tromethamine salt (1:1)] as the compound, how does the “Purity (%)” value [4, 7] read?
Its value is 98.41%.

What about the “Purity (%)” value [4, 8] of the same compound?
The value was 98.47%.

What about the “Purity (%)” value [4, 9] of the same compound?
Its value is 98.48%.

What about the “Initial purity (%)” value [4] of the same compound?
Its value is 98.44%.

What does the source list for `O=C(O)c1ccc2nc(CN3CCC(Oc4cccc(COc5ccc(Cl)cc5F)n4)CC3)n(C[C@@H]3CCO3)c2c1` [Free form of compound I, (S)-2-((4-((6-((4-chloro-2-fluorophenoxy)methyl)pyridin-2-yl)oxy)piperidin-1-yl)methyl)-1-(oxetan-2-ylmethyl)-1H-benzo[d]imidazole-6-carboxylic acid]?
half-life ([2]; SD, rat, plasma, po, 5 mg/kg): 2.84 h; AUC(0-t) ([2]; SD, rat, plasma, po, 5 mg/kg, read-out: AUC0-t): 1.4 µg·h/mL; Cmax ([2]; SD, rat, plasma, po, 5 mg/kg, read-out: Cmax): 0.6 µg/mL; Tmax ([2]; SD, rat, plasma, po, 5 mg/kg, read-out: Tmax): 0.5 h; absolute bioavailability [2]: 21.8%; Purity (%) [4, 7]: 98.94%; Purity (%) [4, 8]: 95.86%; Purity (%) [4, 9]: 89.15%; Initial purity (%) [4]: 98.98%; AUC(0-t) ([5]; 1 mg/kg): 1.28 µg·h/mL; Cmax ([5]; 1 mg/kg): 3.2 µg/mL; half-life ([5]; 1 mg/kg): 3.89 h

For `O=C(O)c1ccc2nc(CN3CCC(Oc4cccc(COc5ccc(Cl)cc5F)n4)CC3)n(C[C@@H]3CCO3)c2c1` [crystal form J, (S)-2-((4-((6-((4-chloro-2-fluorophenoxy)methyl)pyridin-2-yl)oxy)piperidin-1-yl)methyl)-1-(oxetan-2-ylmethyl)-1H-benzo[d]imidazole-6-carboxylic acid tromethamine salt (1:1)], which Crystal form transformation ([6]; dried at 40° C. for 16 h) is on record?
The Crystal form transformation was “transformed to crystal form A”.

Which Crystal form transformation ([6]; dried at 50° C. for 24 h) does the source give for `O=C(O)c1ccc2nc(CN3CCC(Oc4cccc(COc5ccc(Cl)cc5F)n4)CC3)n(C[C@@H]3CCO3)c2c1` [crystal form K, (S)-2-((4-((6-((4-chloro-2-fluorophenoxy)methyl)pyridin-2-yl)oxy)piperidin-1-yl)methyl)-1-(oxetan-2-ylmethyl)-1H-benzo[d]imidazole-6-carboxylic acid tromethamine salt (1:1)] here?
The Crystal form transformation was “transformed to crystal form A”.

Which Crystal form transformation ([6]; dried under vacuum at room temperature for about 16 h) does the source give for `O=C(O)c1ccc2nc(CN3CCC(Oc4cccc(COc5ccc(Cl)cc5F)n4)CC3)n(C[C@@H]3CCO3)c2c1` [crystal form L, (S)-2-((4-((6-((4-chloro-2-fluorophenoxy)methyl)pyridin-2-yl)oxy)piperidin-1-yl)methyl)-1-(oxetan-2-ylmethyl)-1H-benzo[d]imidazole-6-carboxylic acid tromethamine salt (1:1)] here?
Its Crystal form transformation is “transformed to crystal form D”.

And the Crystal form transformation ([6]; let stand in an open flask at room temperature for about 16 h)?
Its Crystal form transformation is “transformed to crystal form D”.

Which Crystal form transformation ([6]; dried at 50° C. for 16 h) does the source give for `O=C(O)c1ccc2nc(CN3CCC(Oc4cccc(COc5ccc(Cl)cc5F)n4)CC3)n(C[C@@H]3CCO3)c2c1` [crystal form N, (S)-2-((4-((6-((4-chloro-2-fluorophenoxy)methyl)pyridin-2-yl)oxy)piperidin-1-yl)methyl)-1-(oxetan-2-ylmethyl)-1H-benzo[d]imidazole-6-carboxylic acid tromethamine salt (1:1)] here?
Its Crystal form transformation is “transformed to crystal form B”.
